target: T1, Human MIF (MIF tautomerase) (Homo sapiens, UniProt P14174); experiment: MIF Tautomerase Inhibitory Assay with L-Dopachrome Methyl Ester; assay type: biochemical; settings: relative potency class, MIF tautomerase inhibition; L-dopachrome methyl ester substrate, pH 7.34, no pre-incubation; read-out: IC50
T1 construct: purchased ProSpec
T1 sequence (P14174 2-115 limits assumed): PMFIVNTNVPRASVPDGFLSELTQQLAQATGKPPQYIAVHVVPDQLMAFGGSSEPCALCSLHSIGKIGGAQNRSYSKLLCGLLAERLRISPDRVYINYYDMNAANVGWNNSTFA
Method: MIF Tautomerase Inhibitory Assay with L-Dopachrome Methyl Ester
Assay Method (pH 7.34, 0.017-0.033% DMSO, 0.034% EtOH): A fresh stock solution of L-dopachrome methyl ester in MeOH was prepared at 55-65 mM through oxidation of L-3,4-dihydroxyphenylalanine methyl ester hydrochloride with sodium periodate according to the procedure described in WO9729635A1. MeOH was removed from 0.5 mL of the L-dopachrome methyl ester/MeOH solution (55-65 mM) under a stream of argon and the residue taken up in appropriate amount of water to prepare a substrate solution (7-10 mM). Active Human MIF (from ProSpec) ([…]) was dissolved in 675 μL 0.1% bovine serum albumin (BSA) in water, and the resultant MIF solution (1 volume) mixed with 55 volumes of Na2HPO4 buffer (50 mM, pH 7.34) to form a 265 ng/mL MIF working solution. MIF working solution (280 μL) or a no-MIF working solution (prepared by mixing 0.1% BSA (1 volume) with the aforementioned Na2HPO4 buffer (55 volumes)) was transferred to wells in a column of 8 wells on a 96-well plate in a Plate Reader (SPECTRAmax Plus 384, Molecular Devices), and 5 μL of H2O/DMSO (99/1) containing no inhibitor or an inhibitor (whose concentration was verified by HPLC). Without pre-mixing or pre-incubation, 10 μL freshly prepared L-dopachrome methyl ester/H2O solution (7-10 mM) was added to each well with a multi-pipet. The assay samples were mixed immediately by sucking up and expelling the contents of the wells three times with a multi-pipet. The absorbance (A1) at 475 nm was then recorded for each sample every 2 s for 3 min. After 5-6 min, the samples were monitored again for 3 min with a reading every two seconds at 475 nm (A2). It can be shown that when [substrate]<<Km, plots of Ln(A1−A2) versus time are linear with slopes m (Eq 1). IC50 values were estimated from Eq 2-5, the inhibitor concentration [I] in the assay mixture and values of m in the presence (mi), absence (mo) of the inhibitor, the value of m observed for the non-MIF blank (mn), the MIF concentration (e), and the specificity constant for the MIF catalyzed reaction (kcat/Km). Ln(A1−A2)=−mt (Eq 1) F=(mi−mn)/(mo−mn) (Eq 2) Wherein mo−mn=ekcat/Km (Eq 3) and mi−mn=(ekcat/Km)[…] (Eq 4) IC50=[I]F/(1−F) (Eq 5)
The compounds listed in Table 1, provided herein, were prepared via procedures identical or similar to those described in the Examples 1-85. The listed compounds were >95% pure by HPLC. Each listed compound yielded a mass spectrum consistent with its structure. Concentrations of MIF tautomerase inhibitors used in the assay were verified by HPLC and the extinction coefficients of the inhibitors. The designated relative potency of MIF tautomerase inhibitors is based on the IC50 as determined by the method described in Biochemical Assay as follows: A, IC50<1 μM; B, 1 μM≦IC50<5 μM; C, 5 μM≦IC50<10 μM; D, 10 μM≦IC50<50 μM; E, 50 μM≦IC50<200 μM.

Row | Structure (SMILES) | IC50
1 | CC1CCCCC1N1Cc2ccc(O)cc2C1=O (centres unmarked) | 10000 to 50000 nM
2 | O=C1c2cc(O)ccc2CN1CCC1CCCCC1 | 5000 to 10000 nM
3 | O=C1c2cc(O)ccc2CN1C[C@H]1CC[C@H](C(=O)OC2CCCCCC2)CC1 | 5000 to 10000 nM
4 | CC(Oc1cccc(F)c1)[C@H]1CC[C@H](CN2Cc3cc(F)c(O)cc3C2=O)CC1 (mixture of isomers) [drawing 62] | < 1000 nM
5 | CC(C)NC(C)[C@H]1CC[C@H](CN2Cc3cc(F)c(O)c(F)c3C2=O)CC1 (some centres unmarked) | < 1000 nM
6 | CC(=O)N[C@@H](COc1cccc(OC[C@H]2CC[C@H](CN3Cc4ccc(O)c(F)c4C3=O)CC2)c1)C(=O)O | < 1000 nM
7 | O=C(OC1CCCCC1)c1ccc(CCN2Cc3ccc(O)cc3C2=O)cc1 | 1000 to 5000 nM
8 | CCOC(CCC1CCCCC1)[C@H]1CC[C@H](CN2Cc3ccc(O)cc3C2=O)CC1 (some centres unmarked) | < 1000 nM
9 | COc1cccc(OC(CCC2CCCCC2)[C@H]2CC[C@H](CN3Cc4ccc(O)cc4C3=O)CC2)c1 (some centres unmarked) | 1000 to 5000 nM
10 | COC(=O)CCCCN1Cc2ccc(O)cc2C1=O | 1000 to 5000 nM
11 | CN(C)C(=O)[C@H]1CC[C@H](CN2Cc3ccc(O)cc3C2=O)CC1 | 1000 to 5000 nM
12 | O=C(OC1CCCC1)C1CCC(CCN2Cc3ccc(O)cc3C2=O)CC1 (centres unmarked) [drawing 139] | 1000 to 5000 nM
13 | O=C1OCc2c(OC[C@H]3CC[C@H](CN4Cc5ccc(O)cc5C4=O)CC3)cccc21 | 1000 to 5000 nM
14 | O=C1c2cc(O)ccc2CN1C[C@H]1CC[C@H](COc2cc(O)cc(F)c2)CC1 | 1000 to 5000 nM
15 | COC(=O)CCN1Cc2ccc(O)cc2C1=O | 5000 to 10000 nM
16 | CNC(=O)[C@H](Cc1ccccc1)NC(C)C1CCC(CN2Cc3ccc(O)c(F)c3C2=O)CC1 (some centres unmarked) [drawing 99] | < 1000 nM
17 | CC(C)(O)[C@H]1CC[C@H](CN2Cc3ccc(O)cc3C2=O)CC1 | < 1000 nM
18 | O=C1c2cc(O)ccc2CN1CC1CCCCCC1 | 1000 to 5000 nM
19 | CC(Oc1cccc(OC[C@H](N)C(=O)O)c1)[C@H]1CC[C@H](CN2Cc3ccc(O)c(F)c3C2=O)CC1 (some centres unmarked) | < 1000 nM

Row | Structure (SMILES) | IC50
20 | CCC(Oc1cccc(OC(F)(F)F)c1)C1CCC(CN2Cc3ccc(O)c(F)c3C2=O)CC1 (centres unmarked) | < 1000 nM
21 | COc1cc(F)cc(OC[C@H]2CC[C@H](CN3Cc4ccc(O)cc4C3=O)CC2)c1 | < 1000 nM
22 | O=C1c2cc(O)ccc2CN1C[C@H]1CC[C@H](C(O)CCC2CCCCC2)CC1 (some centres unmarked) | < 1000 nM
23 | O=C1c2cc(O)ccc2CN1C1CCCCCC1 | 5000 to 10000 nM
24 | O=C(OC1CCCCC1)c1ccc(CN2Cc3ccc(O)cc3C2=O)cc1 | 10000 to 50000 nM
25 | O=C1c2c(ccc(O)c2F)CN1C[C@H]1CC[C@H](COc2cccc(F)c2)CC1 | < 1000 nM
26 | COC(=O)CCCN1Cc2ccc(O)cc2C1=O | 5000 to 10000 nM
27 | O=C1c2cc(O)ccc2CN1C[C@H]1CC[C@H](COc2ccc(F)cc2)CC1 | < 1000 nM
28 | O=C1c2cc(O)ccc2CN1CC1CCC(O)CC1 (centres unmarked) | 1000 to 5000 nM
29 | CC(Oc1cccc(F)c1)[C@H]1CC[C@H](CN2Cc3ccc(O)cc3C2=O)CC1 (some centres unmarked) | < 1000 nM
30 | CC(=O)N(C)CCOc1cccc(OC(C)[C@H]2CC[C@H](CN3Cc4ccc(O)c(F)c4C3=O)CC2)c1 (some centres unmarked) | < 1000 nM
31 | CC(=O)OC(CCC1CCCCC1)[C@H]1CC[C@H](CN2Cc3ccc(O)cc3C2=O)CC1 (some centres unmarked) | < 1000 nM
32 | CC(C)(C)COC(=O)[C@H]1CC[C@H](CN2Cc3ccc(O)cc3C2=O)CC1 | < 1000 nM
33 | O=C1c2cc(O)ccc2CN1C[C@H]1CC[C@H](C(=O)N2CCCCC2)CC1 | < 1000 nM
34 | O=C1OCc2cc(OC[C@H]3CC[C@H](CN4Cc5ccc(O)cc5C4=O)CC3)ccc21 | 1000 to 5000 nM
35 | CC(=O)N[C@@H](COc1cccc(OC(C)[C@H]2CC[C@H](CN3Cc4ccc(O)c(F)c4C3=O)CC2)c1)C(=O)O (some centres unmarked) | < 1000 nM
36 | O=C1c2cc(O)ccc2CN1C[C@H]1CC[C@H](C(=O)OC2CCCCC2)CC1 | 1000 to 5000 nM
37 | N[C@@H](COc1cccc(OC[C@H]2CC[C@H](CN3Cc4ccc(O)c(F)c4C3=O)CC2)c1)C(=O)O | < 1000 nM
38 | CC(Oc1cccc(F)c1)[C@H]1CC[C@H](CN2Cc3cc(F)c(O)c(F)c3C2=O)CC1 (some centres unmarked) | < 1000 nM

Next, values leading:

Row | IC50 | Structure (SMILES)
39 | < 1000 nM | CC([C@H]1CC[C@H](CN2Cc3ccc(O)cc3C2=O)CC1)N1CCOCC1 (some centres unmarked)
40 | < 1000 nM | COc1cc(OC(C)[C@H]2CC[C@H](CN3Cc4ccc(O)c(F)c4C3=O)CC2)ccc1F (some centres unmarked)
41 | 1000 to 5000 nM | CC(N)[C@H]1CC[C@H](CN2Cc3ccc(O)cc3C2=O)CC1 (some centres unmarked)
42 | < 1000 nM | CC(N[C@H](CO)C(=O)O)C1CCC(CN2Cc3ccc(O)c(F)c3C2=O)CC1 (some centres unmarked)
43 | < 1000 nM | CC(Oc1cccc(OC(F)(F)F)c1)[C@H]1CC[C@H](CN2Cc3ccc(O)c(F)c3C2=O)CC1 (some centres unmarked)
44 | 1000 to 5000 nM | O=C1c2cc(O)ccc2CN1C[C@H]1CC[C@H](C(=O)N2CCOCC2)CC1
45 | < 1000 nM | CC(NCCO)C1CCC(CN2Cc3ccc(O)c(F)c3C2=O)CC1 (centres unmarked)
46 | < 1000 nM | CC(OC(=O)CCC(=O)O)[C@H]1CC[C@H](CN2Cc3ccc(O)c(F)c3C2=O)CC1 (some centres unmarked)
47 | < 1000 nM | CC(O)[C@H]1CC[C@H](CN2Cc3ccc(O)cc3C2=O)CC1 (some centres unmarked)
48 | < 1000 nM | CC(N[C@@H](C)C(=O)O)C1CCC(CN2Cc3ccc(O)c(F)c3C2=O)CC1 (some centres unmarked)
49 | < 1000 nM | CC(C)C[C@@H](NC(C)C1CCC(CN2Cc3ccc(O)c(F)c3C2=O)CC1)C(=O)O (some centres unmarked) [drawing 107]
50 | < 1000 nM | COC(=O)[C@H](C)NC(C)C1CCC(CN2Cc3ccc(O)c(F)c3C2=O)CC1 (some centres unmarked)
51 | < 1000 nM | CC(O)[C@H]1CC[C@H](CN2Cc3ccc(O)c(F)c3C2=O)CC1 (some centres unmarked)
52 | < 1000 nM | CC(=O)NC[C@H]1CC[C@H](CN2Cc3ccc(O)c(F)c3C2=O)CC1
53 | < 1000 nM | CC([C@H]1CC[C@H](CN2Cc3ccc(O)c(F)c3C2=O)CC1)N1CCOCC1 (some centres unmarked)
54 | < 1000 nM | CC(C)(O)[C@H]1CC[C@H](CN2Cc3ccc(O)c(F)c3C2=O)CC1
55 | < 1000 nM | O=C1c2c(ccc(O)c2F)CN1C[C@H]1CC[C@H](CO)CC1

Row | IC50 | Structure (SMILES)
56 | < 1000 nM | COC(=O)[C@@H](CO)NC(C)C1CCC(CN2Cc3ccc(O)c(F)c3C2=O)CC1 (some centres unmarked)
57 | < 1000 nM | CNCCOc1cccc(OC(C)[C@H]2CC[C@H](CN3Cc4ccc(O)c(F)c4C3=O)CC2)c1 (some centres unmarked)
58 | < 1000 nM | CCC(Oc1cccc(OC)c1)[C@H]1CC[C@H](CN2Cc3ccc(O)c(F)c3C2=O)CC1 (some centres unmarked)
59 | 1000 to 5000 nM | COC(C)[C@H]1CC[C@H](CN2Cc3ccc(O)c(F)c3C2=O)CC1 (some centres unmarked)
60 | < 1000 nM | COC(=O)[C@H](C)NC(C)[C@H]1CC[C@H](CN2Cc3ccc(O)c(F)c3C2=O)CC1 (single isomer, unassigned)
61 | < 1000 nM | CC(NC(CO)CO)C1CCC(CN2Cc3ccc(O)c(F)c3C2=O)CC1 (centres unmarked)
62 | < 1000 nM | CC(OC(=O)c1ccccc1)[C@H]1CC[C@H](CN2Cc3ccc(O)c(F)c3C2=O)CC1 (some centres unmarked)
63 | < 1000 nM | CC(NCC(=O)O)[C@H]1CC[C@H](CN2Cc3ccc(O)c(F)c3C2=O)CC1 (some centres unmarked)
64 | < 1000 nM | CCC(O)[C@H]1CC[C@H](CN2Cc3ccc(O)c(F)c3C2=O)CC1 (some centres unmarked)
65 | < 1000 nM | COC(=O)[C@H](NC(C)C1CCC(CN2Cc3ccc(O)c(F)c3C2=O)CC1)C(C)C (some centres unmarked)
66 | < 1000 nM | CC(O)[C@H]1CC[C@H](CN2Cc3cc(F)c(O)cc3C2=O)CC1 (some centres unmarked)
67 | < 1000 nM | C[C@H](O)[C@H]1CC[C@H](CN2Cc3ccc(O)c(F)c3C2=O)CC1
68 | < 1000 nM | CC(N[C@H](CO)C(=O)O)[C@H]1CC[C@H](CN2Cc3ccc(O)c(F)c3C2=O)CC1 (single isomer, unassigned)
69 | < 1000 nM | CC(C)(N)[C@H]1CC[C@H](CN2Cc3ccc(O)c(F)c3C2=O)CC1
70 | < 1000 nM | CC(C)[C@@H](NC(C)[C@H]1CC[C@H](CN2Cc3ccc(O)c(F)c3C2=O)CC1)C(=O)O (single isomer, unassigned)
71 | < 1000 nM | CC(O)[C@H]1CC[C@H](CN2Cc3cc(F)c(O)c(F)c3C2=O)CC1 (some centres unmarked)
